Test results: the CheMixHub viscosity set
“And” between values parts separate entries of the source, which are not always exact repeats. Identical values can stand only once. ± gives the uncertainty stated by the source.

Row | Structure (SMILES) | viscosity (293.15 K, 100 kPa) | viscosity (298.15 K, 100 kPa) | viscosity (303.15 K, 100 kPa) | viscosity (308.15 K, 100 kPa) | viscosity (313.15 K, 100 kPa) | viscosity (318.15 K, 100 kPa) | viscosity (298.15 K, 101 kPa) | viscosity (308.15 K, 101 kPa) | viscosity (313.15 K, 101 kPa) | viscosity (318.15 K, 101 kPa) | viscosity (323.15 K, 101 kPa) | viscosity (303.15 K, 101 kPa) | viscosity (303.15 K, 101.3 kPa) | viscosity (303.15 K, 101.33 kPa) | viscosity (308.15 K, 101.3 kPa) | viscosity (298.15 K, 101.33 kPa) | viscosity (323.15 K, 101.33 kPa) | other results
1 | CC[n+]1ccccc1.N#C[N-]C#N | 22.1 ± 2.2 mPa·s | 18.92 ± 1.9 mPa·s | 16.44 ± 1.6 mPa·s | 14.31 ± 1.4 mPa·s | 12.48 ± 1.2 mPa·s | 10.98 ± 1.1 mPa·s |  |  |  |  |  |  |  |  |  |  |  | 
2 | CCCCCCn1cc[n+](C)c1.F[B-](F)(F)F |  |  |  |  |  |  | 171.8 ± 8.1 mPa·s and 211.2 ± 11 mPa·s | 145.4 ± 44 mPa·s and 120.7 ± 3.8 mPa·s and 120 ± 3.8 mPa·s | 113.6 ± 34 mPa·s and 55 ± 3.4 mPa·s | 90.3 ± 27 mPa·s | 72.8 ± 22 mPa·s and 36 ± 2.2 mPa·s |  |  |  |  |  |  | viscosity (299.15 K, 101 kPa): 198.1 ± 9.4 mPa·s and 197.3 ± 9.4 mPa·s; viscosity (301.15 K, 101 kPa): 177.2 ± 7.8 mPa·s and 175.8 ± 7.7 mPa·s; viscosity (302.15 K, 101 kPa): 167.2 ± 7 mPa·s and 165.9 ± 7 mPa·s; viscosity (304.15 K, 101 kPa): 148.4 ± 5.8 mPa·s and 148.6 ± 5.7 mPa·s; viscosity (305.15 K, 101 kPa): 141.2 ± 5.1 mPa·s and 140.7 ± 5.1 mPa·s; viscosity (307.15 K, 101 kPa): 127.5 ± 4.2 mPa·s and 126.7 ± 4.2 mPa·s
3 | COC(=O)OC | 0.62 ± 0.11 mPa·s | 0.58 ± 0.1 mPa·s | 0.5 ± 0.09 mPa·s | 0.47 ± 0.08 mPa·s | 0.45 ± 0.08 mPa·s and 0.489 ± 0.015 mPa·s | 0.43 ± 0.08 mPa·s and 0.462 ± 0.014 mPa·s | 0.58 ± 0.02 mPa·s | 0.49 ± 0.02 mPa·s and 0.519 ± 0.013 mPa·s | 0.45 ± 0.02 mPa·s and 0.491 ± 0.012 mPa·s | 0.4 ± 0.02 mPa·s and 0.465 ± 0.012 mPa·s | 0.442 ± 0.012 mPa·s | 0.55 ± 0.02 mPa·s and 0.55 ± 0.013 mPa·s | 0.553 ± 0.012 mPa·s | 0.503 ± 0.015 mPa·s | 0.524 ± 0.011 mPa·s |  |  | viscosity (293.15 K, 101 kPa): 0.624 ± 0.014 mPa·s; viscosity (293.15 K, 101.3 kPa): 0.628 ± 0.014 mPa·s; viscosity (308.15 K, 101.33 kPa): 0.474 ± 0.014 mPa·s; viscosity (313.15 K, 101.3 kPa): 0.496 ± 0.005 mPa·s; viscosity (323.15 K, 100 kPa): 0.38 ± 0.07 mPa·s and 0.437 ± 0.014 mPa·s
4 | ClC(Cl)C(Cl)Cl |  |  |  |  |  |  | 1.632 ± 0.034 mPa·s |  |  |  |  | 1.455 ± 0.011 mPa·s and 1.521 ± 0.012 mPa·s | 1.484 ± 0.01 mPa·s | 1.455 ± 0.011 mPa·s |  | 1.581 ± 0.016 mPa·s | 1.075 ± 0.011 mPa·s | viscosity (303 K, 101.33 kPa): 1.381 ± 0.036 mPa·s; viscosity (303.15 K, 101.32 kPa): 1.45 ± 0.14 mPa·s and 1.455 ± 0.016 mPa·s; viscosity (313.15 K, 101.32 kPa): 1.367 ± 0.14 mPa·s; viscosity (323.15 K, 101.32 kPa): 1.18 ± 0.12 mPa·s
5 | CCCO |  | 1.91 ± 0.06 mPa·s |  |  |  |  |  |  |  |  | 1.15 ± 0.024 mPa·s | 1.777 ± 0.018 mPa·s and 1.591 ± 0.02 mPa·s and 1.768 ± 0.034 mPa·s | 1.6 ± 0.1 mPa·s and 1.784 ± 0.021 mPa·s |  | 1.488 ± 0.037 mPa·s and 1.4 ± 0.1 mPa·s | 1.743 ± 0.041 mPa·s | 1.136 ± 0.069 mPa·s and 1.166 ± 0.012 mPa·s | viscosity (293.15 K, 101.33 kPa): 2.185 ± 0.046 mPa·s and 2.327 ± 0.023 mPa·s; viscosity (295.15 K, 101 kPa): 2.12 ± 0.056 mPa·s; viscosity (298.15 K, 101.31 kPa): 2.004 ± 0.052 mPa·s; viscosity (303 K, 101 kPa): 1.634 mPa·s; viscosity (303 K, 101.33 kPa): 1.769 ± 0.016 mPa·s; viscosity (303.16 K, 101 kPa): 1.92 ± 0.23 mPa·s; viscosity (308 K, 101.3 kPa): 1.461 ± 0.15 mPa·s; viscosity (308.15 K, 101.33 kPa): 1.486 ± 0.009 mPa·s and 1.466 ± 0.012 mPa·s and 1.376 ± 0.033 mPa·s; viscosity (311 K, 101.3 kPa): 1.43 ± 0.023 mPa·s; viscosity (313 K, 101.3 kPa): 1.317 ± 0.13 mPa·s; viscosity (313.15 K, 101.3 kPa): 1.3 ± 0.1 mPa·s; viscosity (313.15 K, 101.33 kPa): 1.319 ± 0.008 mPa·s; viscosity (318.15 K, 101.3 kPa): 1.1 ± 0.1 mPa·s; viscosity (319 K, 101.3 kPa): 1.197 ± 0.02 mPa·s; viscosity (323 K, 101 kPa): 0.9714 ± 0.014 mPa·s; viscosity (323 K, 101.3 kPa): 1.165 ± 0.12 mPa·s; viscosity (323.15 K, 101.3 kPa): 0.92 ± 0.05 mPa·s
6 | N#CCCO |  |  |  |  |  |  |  |  |  |  |  |  |  |  |  |  |  | viscosity (298 K, 101 kPa): 3.571 ± 0.031 mPa·s
7 | OC(C(F)(F)F)C(F)(F)F |  |  |  |  |  |  | 1.579 ± 0.023 mPa·s and 1.619 ± 0.013 mPa·s |  | 0.989 ± 0.014 mPa·s and 1 ± 0.008 mPa·s |  | 0.765 ± 0.011 mPa·s and 0.788 ± 0.007 mPa·s | 1.361 ± 0.011 mPa·s |  |  |  |  |  | 
8 | CO | 0.587 ± 0.005 mPa·s and 0.55 ± 0.15 mPa·s and 0.58 ± 0.006 mPa·s | 0.5417 ± 0.022 mPa·s | 0.527 ± 0.007 mPa·s | 0.498 ± 0.006 mPa·s and 0.491 ± 0.004 mPa·s and 0.4987 ± 0.02 mPa·s | 0.471 ± 0.006 mPa·s and 0.465 ± 0.004 mPa·s | 0.448 ± 0.006 mPa·s and 0.442 ± 0.004 mPa·s and 0.4456 ± 0.018 mPa·s |  |  |  |  |  |  |  | 0.5054 ± 0.013 mPa·s and 0.541 ± 0.0054 mPa·s | 0.474 ± 0.013 mPa·s | 0.5365 ± 0.013 mPa·s and 0.6152 ± 0.022 mPa·s and 0.562 ± 0.011 mPa·s | 0.3907 ± 0.01 mPa·s and 0.406 ± 0.0041 mPa·s | viscosity (293.31 K, 101 kPa): 0.589 ± 0.007 mPa·s; viscosity (297.8 K, 101 kPa): 0.5495 ± 0.0041 mPa·s; viscosity (298 K, 101.3 kPa): 0.59 ± 0.008 mPa·s; viscosity (299 K, 101 kPa): 0.8138 mPa·s; viscosity (303 K, 100 kPa): 0.5211 ± 0.053 mPa·s and 0.5 ± 0.02 mPa·s; viscosity (303 K, 101.3 kPa): 0.5773 ± 0.08 mPa·s; viscosity (303.16 K, 101 kPa): 0.56 ± 0.079 mPa·s; viscosity (303.21 K, 101 kPa): 0.511 ± 0.006 mPa·s; viscosity (308.56 K, 101 kPa): 0.476 ± 0.006 mPa·s; viscosity (313 K, 100 kPa): 0.4373 ± 0.044 mPa·s and 0.42 ± 0.02 mPa·s; viscosity (313 K, 101.3 kPa): 0.455 ± 0.028 mPa·s; viscosity (313.15 K, 101.33 kPa): 0.4423 ± 0.011 mPa·s and 0.463 ± 0.0046 mPa·s; viscosity (321.15 K, 101.32 kPa): 0.4101 ± 0.01 mPa·s; viscosity (322.15 K, 101.32 kPa): 0.4068 ± 0.01 mPa·s; viscosity (322.9 K, 101 kPa): 0.3997 ± 0.011 mPa·s; viscosity (323.15 K, 100 kPa): 0.3905 ± 0.0012 mPa·s and 0.428 ± 0.005 mPa·s and 0.421 ± 0.003 mPa·s; viscosity (323.15 K, 101.3 kPa): 0.396 ± 0.011 mPa·s; viscosity (323.15 K, 101.32 kPa): 0.401 ± 0.01 mPa·s
9 | COCCOCCOC |  |  |  |  |  |  | 0.983 ± 0.013 mPa·s and 0.983 ± 0.007 mPa·s and 0.996 ± 0.032 mPa·s | 0.839 ± 0.011 mPa·s and 0.839 ± 0.006 mPa·s and 0.868 ± 0.029 mPa·s |  | 0.721 ± 0.01 mPa·s and 0.721 ± 0.005 mPa·s |  | 0.923 ± 0.012 mPa·s |  | 0.904 ± 0.012 mPa·s |  |  |  | viscosity (298.15 K, 101.32 kPa): 0.989 ± 0.006 mPa·s; viscosity (301.15 K, 100 kPa): 1.2 ± 0.1 mPa·s and 1.3 ± 0.1 mPa·s and 1.4 ± 0.1 mPa·s; viscosity (318.15 K, 101.33 kPa): 0.728 ± 0.01 mPa·s (4×) and 0.725 ± 0.019 mPa·s and 0.728 ± 0.019 mPa·s
